Reference: PMC6987128, “Target protein-oriented isolation of Hes1 dimer inhibitors using protein based methods” (Scientific Reports, 2020)

Key:
[1] = system: C17.2 mouse neural stem cells; experiment: Neural stem cell differentiation assay (Tuj1/GFAP immunofluorescence staining); assay type: cell-based; settings: C17.2 cells, 6 days, positive control
Text: We recently developed another protein-based screening method, the target protein oriented natural products isolation method (TPO-NAPI) using protein beads (Fig. 2B). Agalloside, inohanamine, α-mangostine, BE-14106, isomicromonolactam, staurosporin and linarin were isolated as Hes1 binding compounds using the TPO-NAPI method[15],[17]. Rat Hes1 (1–95) containing basic and helix-loop-helix domains was immobilized because the helix-loop-helix domain is known to be important for Hes1-Hes1 interaction; therefore, utilizing this domain in the beads method would likely be effective for screening Hes1 dimer inhibitors. GST-Hes1 immobilized beads were prepared by mixing freshly prepared GST-Hes1 protein with glutathione Sepharose 4B beads. GST-only beads were prepared as a control. After incubating the beads with plant MeOH extracts at 4 °C for 2 h, bound compounds were eluted by adding EtOH and heating at 100 °C for 3 min, then the eluted compounds were analyzed by HPLC. […] The MeOH extract (64.6 g) of Terminalia chebula bark was partitioned with hexane, EtOAc and BuOH to obtain hexane (1.5 g), EtOAc (3.6 g), BuOH (42.6 g), and aqueous (20.5 g) soluble fractions. The EtOAc fraction contained the target peak and was subjected to silica gel column chromatography to give eight fractions (1A-H). Fraction 1D contained the target peak and was separated by ODS column chromatography and reverse-phase HPLC to give compound 11 (0.4 mg). Compound 11 was identified as 4-O-(4″-O-galloyl-α-L-rhamnopyranosyl)ellagic acid by comparison of its NMR data with reported spectral data[37]. […] This is the strongest Hes1 dimer inhibitor reported to date. The ability of 11 to accelerate the differentiation of C17.2 mouse neural stem cells was evaluated (Fig. 5). C17.2 cells (2 × 10^5 cells/mL) were seeded in a poly-L-lysine-coated 24 well plates and incubated for 24 h, then the cells were treated with DMSO (control), 100 μM valproic acid (VPA), 5 μM retinoic acid (RA) (positive controls) or 11 (1 or 5 μM) for 6 days. A confocal microscope was used to obtain images of differentiated neural cells after immunostaining class III β-tubulin (Tuj1) in neurons, and glial fibrillary acidic protein (GFAP) in astrocytes and nuclei (TO-PRO-3). […] In contrast, the control dish containing cells treated with DMSO contained small number of neurons.
C17.2 cells were cultured in proliferation medium [DMEM (DS Pharma Biomedical Co., Ltd. Osaka, Japan) supplemented with 10% fetal bovine serum (Biowest, Nuaillé, France), 5% horse serum (Gibco, Life Technologies, Tokyo, Japan)]. Neural differentiation of C17.2 cells was initiated by transferring the cells to differentiation medium [Neurobasal Medium (Gibco) supplemented with 2% B-27 without vitamin A (Gibco), 1% antibiotic-antimycotic (Gibco)]. All cultures were maintained in a humidified incubator at 37 °C in 5% CO2/95% air.
C17.2 cells were dissociated using the proliferation medium 2 × 10^5 cells/mL on cover glass (MATSUNAMI GLASS) coated with poly-L-lysine and fibronectin/laminin. After incubation for 24 h, cells were washed with D-MEM and treated with individual compounds in differentiation medium for 6 days.
C17.2 cells were fixed with 4% paraformaldehyde in PBS for 20 min at room temperature (r.t.) and washed with 1% BSA in PBS three times. After blocking with 10% BSA in 0.3% Triton X-100 in PBS for 45 min at r.t., fixed cells were incubated with primary antibodies (anti-βIII-Tubulin; Neuronal Class III, Mouse-Mono, 1:400, R&D Systems^TM; anti-GFAP, 1:400, VERITAS) for 12 h at 4 °C. After washing three times with 1% BSA in PBS (500 μL/well), cells were incubated with secondary antibodies (Alexa Fluor® 488 goat anti-mouse IgG (H + L), 1:400, Life Technologies; Alexa Fluor® 555 goat ant-rabbit IgG (H + L), 1:200, Life Technologies) for 1 hr at r.t. in the dark. […]

NSCs = settings: cited from earlier work

Compound | differentiation of NSCs to neurons (NSCs) | other results
CCCC(CCC)C(=O)O [VPA, valproic acid, reference compound] | – | number of neurons ([1]; 100 μM): increased
isomicromonolactam | accelerated the differentiation of NSCs to neurons | –
COc1ccc(-c2cc(=O)c3c(O[C@@H]4O[C@H](CO[C@@H]5OC[C@@H](O)[C@H](O)[C@H]5O)[C@@H](O)[C@H](O)[C@H]4O)cc(OC)cc3o2)cc1 [agalloside] | accelerated the differentiation of NSCs to neurons | –
CC1=C(/C=C/C(C)=C/C=C/C(C)=C/C(=O)O)C(C)(C)CCC1 [RA, retinoic acid, reference compound] | – | number of neurons ([1]; 5 μM): increased
CCCC(=O)/C=C/C1=C(O)C(=O)c2cc(O)c(O)cc2C1=O [Lindbladione] | accelerated the differentiation of NSCs to neurons | –
C/C=C/C=C/C=C/[C@@H]1NCC[C@@H](O)[C@H]1C [inohanamine] | accelerated the differentiation of NSCs to neurons | –
